Values joined by “and” are separate entries in the source; they are usually repeats but may differ in a detail not shown here. Equal values may be shown once. “Also recorded” adds a separate entry of the source. Read-outs that look alike come from different tables or passages of the source. No end group written: not given here.
Columns and labels:
PCY1:S562A = test: ITC equilibrium binding to PCY1:S562A; parameters: species or system Saponaria vaccaria; conditions: for Kd: ITC, 25° C.
Method: All PCY1 samples were buffer-exchanged or solubilized into buffer F and further diluted in the same batch of buffer F, in order to minimize buffer mismatches. ITC binding experiments were performed using a cell solution containing PCY1:S562A and a titrant solution with each peptide used. […] The measurements were performed at a stir speed of 750 rpm at 25° C. using a reference power of 10 μcal/s, except for A1-NH2 (5 μcal/s). A buffer titration control in which peptide was titrated into buffer was performed for each experiment. Data processing, fitting to a non-linear one-site binding model, and data plotting was performed using MicroCal PEAQ ITC analysis software (Malvern). […] The measurement was performed in buffer at 30° C., at 750 rpm using a reference power of 5 μcal/s.

PCY1 [1] = test: LC/MS time course of macrocyclisation by PCY1; assay type: biochemical, Saponaria vaccaria; conditions: 200 μM substrate, 3.6 μM PCY1
Method: (§1) All kinetic measurements (activity tests, progress curves and initial-rate experiments) were performed as discontinuous assays analyzing samples via LC/MS or MALDI (10-mer activity test). Reactions were performed in 20 mM Tris pH 8.5, 100 mM NaCl, 5 mM DTT (for progress curves 0.2 mg mL-1 BSA was included).17 Reactions were performed at 30° C. and at various time points 50 μL samples were quenched with 20 μL of 6% (v/v) TFA. Samples (50 μL) were loaded onto a ZORBAX SBC18, 5 μm, 9.4 mm×50 mm (Agilent) column connected to an Agilent LC-MS instrument (G6130B Single Quad, Agilent Technologies). Reactants were separated from products using a gradient from A (H2O with 0.1% formic acid) to 80% B (acetonitrile), at a rate of 1.5 mL/min for 8.75 min. For data analysis, ion count peaks and UV absorbance peaks were integrated using Agilent ChemStation software. For data analysis involving quantitative mass spec integration, calibration curves with macrocyclic peptide product were performed in triplicate in order to linearly correlate ion counts to cyclic product concentration. Data fitting and plotting was performed with Prism 6.
PCY1 extracted from S. vaccaria seeds has been previously described to have a turnover number of ˜1 h^−1 for PresegA1.^17 The enzyme produced heterologously in E. coli was evaluated by LC/MS-based time course experiments macrocyclizing 200 μM of PresegA1, PresegB1 or PresegF1 with 3.6 μM PCY1. […] We chose to investigate the slowest and fastest substrate by steady-state kinetics using an LC/MS assay and UV280 nm quantification. […] Under the ITC conditions, the measured kcat (0.14±0.01 s^−1) was a factor of three lower than the LC/MS derived values. […] Therefore, we resorted to an LC/MS assay followed by quantification using mass ion counts, relying on a calibration curve employing the macrocyclic peptide product as a standard (FIG. 2b).

PCY1 [2] = test: LC/MS steady-state kinetics of macrocyclisation by PCY1; assay type: biochemical, Saponaria vaccaria; conditions: for Km: read-out: Km (table head prints Kin)
Method: as §1
PCY1 extracted from S. vaccaria seeds has been previously described to have a turnover number of ˜1 h^−1 for PresegA1.^17 The enzyme produced heterologously in E. coli was evaluated by LC/MS-based time course experiments macrocyclizing 200 μM of PresegA1, PresegB1 or PresegF1 with 3.6 μM PCY1. These substrates were chosen as they produce 6, 5 and 9 residue macrocycles, respectively, show variability in the length of the C-terminal tail sequence, and have a different C-terminal core residue (proline in PresegF1, alanine in the other two) (FIG. 1b). PresegB1 was completely macrocyclized in ˜30 min, PresegA1 in ˜50 min and PresegF1 in >3 h (FIG. 2a). We chose to investigate the slowest and fastest substrate by steady-state kinetics using an LC/MS assay and UV280 nm quantification. […] Under the ITC conditions, the measured kcat (0.14±0.01 s^−1) was a factor of three lower than the LC/MS derived values. […] Therefore, we resorted to an LC/MS assay followed by quantification using mass ion counts, relying on a calibration curve employing the macrocyclic peptide product as a standard (FIG. 2b).

GmPOPB_S577A = target: T1, GmPOPB_S577A (Galerina marginata, UniProt H2E7Q8, S577A); test: ITC binding to inactive mutant GmPOPB_S577A; conditions: for difference in binding affinity (fold): 13mer versus 35mer, 12 versus 17 amino acid recognition sequence; for binding (in words): concentrations up to 1 mM
T1 construct: His-tag (TEV-cleavable) (cleaved yes); made in house; host or cells: E. coli BL21(DE3)
T1 sequence (H2E7Q8 1-730 S577A): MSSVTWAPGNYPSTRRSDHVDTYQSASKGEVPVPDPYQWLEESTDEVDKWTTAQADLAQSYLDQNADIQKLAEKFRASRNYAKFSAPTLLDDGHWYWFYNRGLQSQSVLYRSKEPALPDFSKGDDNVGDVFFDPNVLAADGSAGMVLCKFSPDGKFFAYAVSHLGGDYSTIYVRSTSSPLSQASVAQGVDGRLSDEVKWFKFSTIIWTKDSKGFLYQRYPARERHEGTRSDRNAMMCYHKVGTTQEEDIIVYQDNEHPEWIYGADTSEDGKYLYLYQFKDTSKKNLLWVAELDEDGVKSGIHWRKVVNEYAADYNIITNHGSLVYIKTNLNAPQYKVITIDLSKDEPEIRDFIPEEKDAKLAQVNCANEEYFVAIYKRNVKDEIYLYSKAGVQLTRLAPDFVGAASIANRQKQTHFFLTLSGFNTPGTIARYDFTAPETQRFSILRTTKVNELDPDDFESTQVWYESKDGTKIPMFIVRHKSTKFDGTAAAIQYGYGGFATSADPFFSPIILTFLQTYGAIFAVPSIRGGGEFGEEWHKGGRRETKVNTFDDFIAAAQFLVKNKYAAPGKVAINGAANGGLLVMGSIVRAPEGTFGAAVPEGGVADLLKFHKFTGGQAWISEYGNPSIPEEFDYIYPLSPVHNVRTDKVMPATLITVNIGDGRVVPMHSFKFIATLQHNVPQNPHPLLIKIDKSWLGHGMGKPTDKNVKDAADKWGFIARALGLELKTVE
Method: GmPOPB peptide ligand solutions were prepared in 20 mM Tris pH 8.0 containing 1 mM DTT, prior to buffer exchange by three cycles of dilution in 50 mM Tris pH 8.0 with 50 mM NaCl, 10 mM DTT followed by concentration using a Microsep Advance centrifugal device equipped with a 1 kDa cut off membrane (Pall Corporation). The same three cycles of dilution in 50 mM Tris pH 8.0 with 50 mM NaCl and 10 mM DTT followed by concentration were performed with the protein to be used in the titration using a Vivaspin protein concentrator spin column with a 30 kDa cut off (GE Healthcare). A final dilution to the concentration to be used for titration was performed using the buffer that passed through during the protein buffer exchange, both for the protein and peptide to be used to avoid any possible buffer mismatch. […] Titrations of peptide into protein solutions were conducted at 20° C. For all the titration experiments, a total of 19 injections of 2 μL were made at 120 s intervals. The heat released due to the first injection (0.4 μL) was excluded from data analyses. […] Equilibrium dissociation constants (Kd) as well as ΔH and ΔS values for binding of each peptide to protein were obtained by fitting the calorimetric data with a single-site model using the stoichiometry parameter n fixed at 1.0 using Malvern PEAQ-ITC data analysis software.
We performed all ITC binding experiments at least in duplicate, and calculations of average and standard error of the mean were performed with GraphPad Prism.

GmPOPB = target: T2, GmPOPB (Galerina marginata, UniProt H2E7Q8); test: GmPOPB kinetic assays (LC-MS); assay type: biochemical; conditions: room temperature
T2 construct: His-tag (TEV-cleavable) (cleaved yes); host or cells: E. coli BL21(DE3)
Method: Comparison between distinct GmPOPB substrates was performed in 50 mM Tris pH 8.0, 50 mM NaCl, 10 mM DTT with varying concentrations of substrates at room temperature. All reactions were performed in duplicates. Reactions were started by adding GmPOPB (50 nM for GmAMA1_C6S, 1 μM for the 13mer and 14mer, and 20 nM for other substrates) to the assay mixture containing buffer and peptide. Reactions were quenched at several time points by adding 50 μL reaction mixture to 20 μL 6% TFA. Reactants were separated from products for quantification by injecting 50 μL of each quenched time point mix onto a ZORBAX SB-C18, 5 μm, 9.4×50 mm (Agilent) column connected to an Agilent LC-MS (G6130B Single Quad, Agilent Technologies). Reactants were separated from products using a gradient from H2O containing 0.1% TFA or 0.1% formic acid and 5% acetonitrile to 50% acetonitrile, at 1.5 ml/min for 8 min. Peaks with ultra violet (UV) absorbance at 220 and 280 nm were integrated, the area of peaks corresponding to reactant and products was used to calculate the percentage of product formed after a correction for differences in the extinction coefficient of each peptide was applied (ε280-25mer=11,000M-1 cm-1, ε220-25mer=46,000M-1 cm-1, ε280-cyclic=5500M-1 cm-1, ε220-cyclic=34,000M-1 cm-1, and ε280-tail=5500M-1 cm-1). The sum of product+substrate was assumed equal to the total initial amount of substrate, product converted from % to concentration. This value was divided by concentration of enzyme present to yield v/Et (min-1). When enzyme mutants and peptides containing alanine in the core region were tested for activity, higher concentrations 5 μM enzyme and 100 μM substrate were incubated for 1 and 18 h at room temperature. For progress curves with the 35mer substrate, measurements were triplicate and quantification relied on ion counts from mass spectrometry. […] Authentic macrocyclic peptide was quantified by UV absorbance. Data showing products formed after 1 and 16 h with truncated peptides were performed twice. […] Kinetic data were fitted to a Michaelis-Menten equation using GraphPad Prism, and values reported are average and standard error of the mean.

PCY1 [3] = test: PCY1 macrocyclisation of truncated presegetalin F1 substrates with catalytic peptide; assay type: biochemical, Saponaria vaccaria; conditions: for effect of catalytic peptide on rate of PreF1coreT macrocyclisation: substrate PreF1coreT (FSASYSSKPIQT), 500 μM catalytic peptide
Method: Initial rate measurements at different substrate concentrations were performed in order to derive steady state kinetics. All reactions were performed with 0.25 μM PCY1 and 25, 50, 100, 200, 400 or 800 μM substrate ([…] or […]). Reactions containing catalytic peptide RNASAPV or DNASAPV were supplemented with 500 μM of each peptide, respectively. Reactions were performed in 20 mM TRIS pH 8.5, 100 mM NaCl, 5 mM DTT at 30° C. Time points were taken at 5, 15, 30, 45 and 60 min. Samples (50 μL) at each time point were quenched with 20 μL of 6% (v/v) TFA and then spun down for 30 min at 3,080×g. Samples were analysed via LC/MS (ZORBAX SBC18, 5 μm, 9.4 mm×50 mm (Agilent) column connected to an Agilent LC-MS instrument (G6130B Single Quad, Agilent Technologies)) using 0.1% (v/v) formic acid and a gradient of acetonitrile (5%-95%). Extracted ion count peaks for corresponding product (A[[…]]) masses ([M]: 954.44, [M]+H^+: 955.44 and [M]+Na^+: 977.44) were integrated and converted in corresponding product concentration using an ion count v. [product] calibration curve. Product concentration time courses were analysed with linear regression and slopes were plotted as a function of substrate concentrations (Michaelis Menten plot), deriving steady state kinetic parameters shown in FIGS. 7 to 9.

[4] = ITC, 20° C., S577A mutant, read-out: Kd

Sequence of PCY1 (as listed by the source): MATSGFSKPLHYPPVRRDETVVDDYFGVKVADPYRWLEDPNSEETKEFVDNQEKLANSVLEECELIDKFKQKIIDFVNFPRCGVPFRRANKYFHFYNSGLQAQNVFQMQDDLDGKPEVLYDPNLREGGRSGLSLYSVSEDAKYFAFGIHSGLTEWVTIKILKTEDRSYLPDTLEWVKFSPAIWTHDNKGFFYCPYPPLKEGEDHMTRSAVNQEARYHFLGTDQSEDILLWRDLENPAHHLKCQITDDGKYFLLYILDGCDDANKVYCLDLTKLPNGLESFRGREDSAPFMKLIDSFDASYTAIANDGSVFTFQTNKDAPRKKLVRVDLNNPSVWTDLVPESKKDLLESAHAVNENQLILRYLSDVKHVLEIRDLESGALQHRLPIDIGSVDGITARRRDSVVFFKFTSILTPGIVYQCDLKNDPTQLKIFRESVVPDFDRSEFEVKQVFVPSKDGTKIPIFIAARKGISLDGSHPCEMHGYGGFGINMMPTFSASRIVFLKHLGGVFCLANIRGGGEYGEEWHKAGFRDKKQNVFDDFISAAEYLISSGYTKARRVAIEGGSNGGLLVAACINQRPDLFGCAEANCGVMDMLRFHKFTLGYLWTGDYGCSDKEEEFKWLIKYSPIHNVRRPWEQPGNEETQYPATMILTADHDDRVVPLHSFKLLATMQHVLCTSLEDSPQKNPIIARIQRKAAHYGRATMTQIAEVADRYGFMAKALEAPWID
Sequence of PCY1:S562A (as listed by the source, stated change not applied): as the sequence (as listed by the source) above, with S562A counted along it

## PresegF1: native linear PCY1 substrate presegetalin F1; produces a 9 residue macrocycle (FSASYSSKPIQTQVSNGMDNASAPV; PresegF1)
PCY1:S562A
  Kd: ~0.2 µM
PCY1 [1]
  time until completely macrocyclized: > 3 h
PCY1 [2]; LC/MS (ion counts), 30° C.
  kcat (table head prints kout): 0.12 ± 0.01 s⁻¹
  Km: 2.4 ± 0.51 µM
PCY1 [2]; steady state kinetics, FIG. 7
  processing by PCY1 (in words): rapidly processed

## TLASGNDIC [9mer-recogSeq]
GmPOPB_S577A
  Kd: 121 ± 19 µM

## H-IWGIGCNPWTAEHV [14mer]
GmPOPB_S577A; [4]
  Kd: 9.5 ± 1.1 µM
GmPOPB
  Km: 380 µM
  kcat: 0.00967 s⁻¹

## RGGNASAPV [catalytic peptide for PCY1]
PCY1 [3]
  effect of catalytic peptide on rate of PreF1coreT macrocyclisation: increase in the rate

## FSASYSSKPIQT [PresegF1-truncated]
PCY1:S562A; poor peptide solubility at high concentrations
  Kd (in words): too high to be accurately measured
PCY1 [2]; LC/MS (ion counts), 30° C.
  Km: 227 µM

## H-IWGIGCNPWTAEH [13mer]
GmPOPB_S577A
  difference in binding affinity (fold): ~20 fold and 10 fold
GmPOPB_S577A; [4]
  Kd: 2.4 ± 0.1 µM
GmPOPB
  Km: 25 µM
  kcat: 0.00817 s⁻¹

## CC[C@H](C)[C@H](NC(=O)CNC(=O)[C@H](Cc1c[nH]c2ccccc12)NC(=O)[C@@H](NC(=O)[C@@H]1CCCN1C(=O)[C@H](CC(C)C)NC(=O)[C@H](CCCNC(=N)N)NC(=O)[C@@H](NC(=O)[C@H](C)NC(=O)[C@H](CC(N)=O)NC(=O)[C@@H](NC(=O)[C@H](CC(=O)O)NC(=O)[C@H](Cc1ccccc1)NC(=O)[C@@H](N)CCSC)[C@@H](C)O)[C@@H](C)O)[C@@H](C)CC)C(=O)NCC(=O)N[C@@H](CS)C(=O)N[C@@H](CC(N)=O)C(=O)N1CCC[C@H]1C(=O)N[C@@H](Cc1c[nH]c2ccccc12)C(=O)N[C@H](C(=O)N[C@@H](C)C(=O)N[C@@H](CCC(=O)O)C(=O)N[C@@H](Cc1c[nH]cn1)C(=O)N[C@H](C(=O)N[C@@H](CC(=O)O)C(=O)N[C@@H](CCC(N)=O)C(=O)N[C@H](C(=O)N[C@@H](CC(C)C)C(=O)N[C@@H](C)C(=O)N[C@@H](CO)C(=O)NCC(=O)N[C@@H](CC(N)=O)C(=O)N[C@@H](CC(=O)O)C(=O)N[C@H](C(=O)N[C@@H](CS)C(=O)O)[C@@H](C)CC)[C@@H](C)O)C(C)C)[C@@H](C)O [35mer, reference compound]
GmPOPB_S577A; [4]
  Kd: 0.12 ± 0.03 µM

## RANASAPV [catalytic peptide for PCY1]
PCY1 [3]
  effect of catalytic peptide on rate of PreF1coreT macrocyclisation: increase in the rate

## RGNASAPV [catalytic peptide for PCY1]
PCY1 [3]
  effect of catalytic peptide on rate of PreF1coreT macrocyclisation: increase in the rate

## H-IWGIGCNPWTA [11mer]
GmPOPB_S577A; [4]
  Kd: 39 ± 18 µM

## PresegD1: native linear PCY1 substrate presegetalin D1 (GLSFAFPAKDAENASSPV)
PCY1:S562A
  Kd: ~0.2 µM

## RASAPV
PCY1 [3]
  effect of catalytic peptide on rate of PreF1coreT macrocyclisation: increase in the rate

## H-IWGIGCNPWTAE [12mer]
GmPOPB_S577A; [4]
  Kd: 21 ± 5 µM

## MFDTNATRLP [reference compound]
GmPOPB_S577A; ITC
  binding (in words): no detectable binding
GmPOPB_S577A; ITC, listed as 10-residue leader
  binding (in words): does not bind
GmPOPB_S577A; ITC, listed as leader
  binding (in words): does not bind

## RAANSAPV [catalytic peptide for PCY1]
PCY1 [3]
  effect of catalytic peptide on rate of PreF1coreT macrocyclisation: increase in the rate

## DNASAPV [catalytic peptide for PCY1]
PCY1 [3]; substrate PreF1coreD (FSASYSSKPIQD), mismatched catalytic peptide
  effect of catalytic peptide on rate of PreF1coreD macrocyclisation: reduces the rate

## H-IWGIGCNPWT [10mer]
GmPOPB_S577A; [4]
  Kd: 83 ± 17 µM

## RNASAPV [catalytic peptide for PCY1]
PCY1 [3]
  effect of catalytic peptide on rate of PreF1coreT macrocyclisation: increases the rate; also recorded: increase in the rate

## VDQTLASGNDIC [12mer-recogSeq]
GmPOPB_S577A
  Kd: 5 ± 1 µM
  difference in binding affinity (fold): 20 fold

## RGANASAPV [catalytic peptide for PCY1]
PCY1 [3]
  effect of catalytic peptide on rate of PreF1coreT macrocyclisation: increase in the rate
